What was measured:
Assay type in all cases: in vivo
[1] = tested on: ducksalad (Heteranthera limosa); assay: Test B flooded paddy test, visual rating; settings: Flood, 250 g ai/ha, applied to paddy water, rated after 13 to 15 d
Procedure, shortened: (§1)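 Ratings use a 0-100 visual scale, where 100 is complete control, and compare treated plants with controls after 13 to 15 d of greenhouse growth. Compound went straight into paddy water kept 3 cm over the soil surface, applied to seedlings at the 2-leaf stage.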

[2] = tested on: barnyardgrass (Echinochloa crus-galli); assay: Test B flooded paddy test, visual rating; settings: Flood, 250 g ai/ha, applied to paddy water, rated after 13 to 15 d
Procedure, shortened: as §1

[3] = tested on: sedge, umbrella (small-flower umbrella sedge, Cyperus difformis); assay: Test B flooded paddy test, visual rating; settings: Flood, 250 g ai/ha, applied to paddy water, rated after 13 to 15 d
Procedure, shortened: as §1

rice (Oryza sativa) = assay: Test B flooded paddy test, visual rating; settings: Flood, 250 g ai/ha, applied to paddy water, rated after 13 to 15 d
Procedure, shortened: as §1

kochia (Kochia scoparia) [4] = assay: Test A preemergence, directed soil spray, visual injury rating; settings: 0 is no effect, 100 is complete control
Procedure, shortened: (§2)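 Injury ratings, 0 (no effect) to 100 (complete control), were scored visually versus untreated plants roughly 10 d after treatment under greenhouse conditions. Treatments used surfactant-containing solvent formulations, sprayed onto soil preemergence or onto one- to two-leaf seedlings (2-10 cm) postemergence, grown in a loam-sand mix.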

Foxtail, Green [5] = assay: as above; settings: 0 is no effect, 100 is complete control
[6] = tested on: pigweed (Amaranthus retroflexus); assay: as above; settings: 0 is no effect, 100 is complete control
Procedure, shortened: as §2

[7] = tested on: ragweed (common ragweed, Ambrosia elatior); assay: as above; settings: 0 is no effect, 100 is complete control
Procedure, shortened: as §2

[8] = tested on: barnyardgrass (Echinochloa crus-galli); assay: as above; settings: 0 is no effect, 100 is complete control
Procedure, shortened: as §2

[9] = tested on: ryegrass, It. (Italian ryegrass, Lolium multiflorum); assay: as above; settings: 0 is no effect, 100 is complete control
Procedure, shortened: as §2

kochia (Kochia scoparia) [10] = assay: Test A postemergence application, visual injury rating; settings: for Kochia plant response rating: 0 to 100 scale, 0 no effect, 100 complete control; for Plant response rating (0 to 100 scale), Kochia: 0 is no effect, 100 is complete control
Procedure, shortened: as §2

[11] = tested on: galium (catchweed bedstraw, Galium aparine); assay: as above; settings: for Galium plant response rating: 0 to 100 scale, 0 no effect, 100 complete control; for Plant response rating (0 to 100 scale), Galium: 0 is no effect, 100 is complete control
Procedure, shortened: as §2

Foxtail, Green [12] = assay: as above; settings: for Foxtail, Green plant response rating: 0 to 100 scale, 0 no effect, 100 complete control; for Plant response rating (0 to 100 scale), Foxtail, Green: 0 is no effect, 100 is complete control
[13] = tested on: pigweed (Amaranthus retroflexus); assay: as above; settings: for Pigweed plant response rating: 0 to 100 scale, 0 no effect, 100 complete control; for Plant response rating (0 to 100 scale), Pigweed: 0 is no effect, 100 is complete control
Procedure, shortened: as §2

[14] = tested on: ragweed (common ragweed, Ambrosia elatior); assay: as above; settings: for Ragweed plant response rating: 0 to 100 scale, 0 no effect, 100 complete control; for Plant response rating (0 to 100 scale), Ragweed: 0 is no effect, 100 is complete control
Procedure, shortened: as §2

corn (Zea mays) = assay: as above; settings: for Corn plant response rating: 0 to 100 scale, 0 no effect, 100 complete control; for Plant response rating (0 to 100 scale), Corn: 0 is no effect, 100 is complete control
Procedure, shortened: as §2

[15] = tested on: wheat (Triticum aestivum); assay: as above; settings: for Wheat plant response rating: 0 to 100 scale, 0 no effect, 100 complete control; for Plant response rating (0 to 100 scale), Wheat: 0 is no effect, 100 is complete control
Procedure, shortened: as §2

[16] = tested on: blackgrass (Alopecurus myosuroides); assay: as above; settings: 0 to 100 scale, 0 no effect, 100 complete control
Procedure, shortened: as §2

[17] = tested on: barnyardgrass (Echinochloa crus-galli); assay: as above; settings: 0 to 100 scale, 0 no effect, 100 complete control
Procedure, shortened: as §2

[18] = tested on: ryegrass, It. (Italian ryegrass, Lolium multiflorum); assay: as above; settings: for Ryegrass, It. plant response rating: 0 to 100 scale, 0 no effect, 100 complete control; for Plant response rating (0 to 100 scale), Ryegrass, It.: 0 is no effect, 100 is complete control
Procedure, shortened: as §2

Structure (SMILES) | Ducksalad plant response rating (0 to 100 scale, 0 is no effect, 100 is complete control) [1] | Barnyardgrass plant response rating (0 to 100 scale, 0 is no effect, 100 is complete control) [2] | Sedge, Umbrella plant response rating (0 to 100 scale, 0 is no effect, 100 is complete control) [3] | Rice plant response rating (0 to 100 scale, 0 is no effect, 100 is complete control) (rice (Oryza sativa)) | Plant response rating (0 to 100 scale), Kochia (kochia (Kochia scoparia) [4]; 31 g ai/ha) | Plant response rating (0 to 100 scale), Kochia (kochia (Kochia scoparia) [4]; 125 g ai/ha) | Plant response rating (0 to 100 scale), Foxtail, Green (Foxtail, Green [5]; 31 g ai/ha) | Plant response rating (0 to 100 scale), Foxtail, Green (Foxtail, Green [5]; 125 g ai/ha) | Plant response rating (0 to 100 scale), Pigweed ([6]; 31 g ai/ha) | Plant response rating (0 to 100 scale), Pigweed ([6]; 125 g ai/ha) | Plant response rating (0 to 100 scale), Ragweed ([7]; 31 g ai/ha) | Plant response rating (0 to 100 scale), Ragweed ([7]; 125 g ai/ha) | Plant response rating (0 to 100 scale), Barnyardgrass ([8]; 31 g ai/ha) | Plant response rating (0 to 100 scale), Barnyardgrass ([8]; 125 g ai/ha) | Plant response rating (0 to 100 scale), Ryegrass, It. ([9]; 31 g ai/ha) | Plant response rating (0 to 100 scale), Ryegrass, It. ([9]; 125 g ai/ha) | Kochia plant response rating (kochia (Kochia scoparia) [10]; 125 g ai/ha) | Galium plant response rating ([11]; 125 g ai/ha) | Foxtail, Green plant response rating (Foxtail, Green [12]; 125 g ai/ha) | Pigweed plant response rating ([13]; 125 g ai/ha) | other results
Cc1cc2ccc(C(F)(F)F)c(-c3c(O)c(C)nn(C)c3=O)c2o1 [Compound 49] | 0 | 0 | 0 | 0 | 0 | 40 | 0 | 0 | 30 | 100 | 0 | 90 | 0 | 0 | 20 | 50 | 80 | 90 | 30 | 100 | Kochia plant response rating (kochia (Kochia scoparia) [10]; 31 g ai/ha): 60; Galium plant response rating ([11]; 31 g ai/ha): 80; Foxtail, Green plant response rating (Foxtail, Green [12]; 31 g ai/ha): 20; Pigweed plant response rating ([13]; 31 g ai/ha): 90; Ragweed plant response rating ([14]; 31 g ai/ha): 80; Ragweed plant response rating ([14]; 125 g ai/ha): 90; Corn plant response rating (corn (Zea mays); 31 g ai/ha): 0; Corn plant response rating (corn (Zea mays); 125 g ai/ha): 20; Wheat plant response rating ([15]; 31 g ai/ha): 0; Wheat plant response rating ([15]; 125 g ai/ha): 0; Blackgrass plant response rating ([16]; 31 g ai/ha): 0; Blackgrass plant response rating ([16]; 125 g ai/ha): 0; Barnyardgrass plant response rating ([17]; 31 g ai/ha): 0; Barnyardgrass plant response rating ([17]; 125 g ai/ha): 10; Ryegrass, It. plant response rating ([18]; 31 g ai/ha): 10; Ryegrass, It. plant response rating ([18]; 125 g ai/ha): 40
Cc1nn(C)c(=O)c(-c2ccc(Cl)c3ccoc23)c1O [Compound 56] | 0 | 0 | 0 | 0 | 0 | 0 | 0 | 0 | 0 | 40 | 0 | 0 | 0 | 0 | 10 | 70 | 0 | 100 | 10 | 0 | Kochia plant response rating (kochia (Kochia scoparia) [10]; 31 g ai/ha): 0; Galium plant response rating ([11]; 31 g ai/ha): 60; Foxtail, Green plant response rating (Foxtail, Green [12]; 31 g ai/ha): 0; Pigweed plant response rating ([13]; 31 g ai/ha): 0; Ragweed plant response rating ([14]; 31 g ai/ha): 0; Ragweed plant response rating ([14]; 125 g ai/ha): 0; Corn plant response rating (corn (Zea mays); 31 g ai/ha): 0; Corn plant response rating (corn (Zea mays); 125 g ai/ha): 0; Wheat plant response rating ([15]; 31 g ai/ha): 0; Wheat plant response rating ([15]; 125 g ai/ha): 0; Blackgrass plant response rating ([16]; 31 g ai/ha): 0; Blackgrass plant response rating ([16]; 125 g ai/ha): 0; Barnyardgrass plant response rating ([17]; 31 g ai/ha): 0; Barnyardgrass plant response rating ([17]; 125 g ai/ha): 10; Ryegrass, It. plant response rating ([18]; 31 g ai/ha): 50; Ryegrass, It. plant response rating ([18]; 125 g ai/ha): 50
Cn1nc(Cl)c(O)c(-c2cccc3c2nnn3C)c1=O [Compound 61] | 0 | 0 | 0 | 0 | 0 | 0 | 0 | 0 | 0 | 0 | 0 | 0 | 0 | 0 | 0 | 0 | 0 | 0 | 0 | 0 | Plant response rating (0 to 100 scale), Kochia (kochia (Kochia scoparia) [10]; 31 g ai/ha): 0; Plant response rating (0 to 100 scale), Galium ([11]; 31 g ai/ha): 0; Plant response rating (0 to 100 scale), Foxtail, Green (Foxtail, Green [12]; 31 g ai/ha): 0; Plant response rating (0 to 100 scale), Pigweed ([13]; 31 g ai/ha): 0; Plant response rating (0 to 100 scale), Ragweed ([14]; 31 g ai/ha): 0; Ragweed plant response rating ([14]; 125 g ai/ha): 0; Plant response rating (0 to 100 scale), Corn (corn (Zea mays); 31 g ai/ha): 0; Corn plant response rating (corn (Zea mays); 125 g ai/ha): 0; Plant response rating (0 to 100 scale), Wheat ([15]; 31 g ai/ha): 0; Wheat plant response rating ([15]; 125 g ai/ha): 0; Blackgrass plant response rating ([16]; 31 g ai/ha): 0; Blackgrass plant response rating ([16]; 125 g ai/ha): 0; Barnyardgrass plant response rating ([17]; 31 g ai/ha): 0; Barnyardgrass plant response rating ([17]; 125 g ai/ha): 0; Plant response rating (0 to 100 scale), Ryegrass, It. ([18]; 31 g ai/ha): 0; Ryegrass, It. plant response rating ([18]; 125 g ai/ha): 0
CCC(=O)Oc1c(C)nn(C)c(=O)c1-c1c(Br)ccc2c1cnn2C [Compound 64] | 0 | 0 | 0 | 0 | 0 | 0 | 0 | 0 | 0 | 0 | 0 | 0 | 0 | 0 | 0 | 0 | 0 | 50 | 0 | 0 | Plant response rating (0 to 100 scale), Kochia (kochia (Kochia scoparia) [10]; 31 g ai/ha): 0; Plant response rating (0 to 100 scale), Galium ([11]; 31 g ai/ha): 30; Plant response rating (0 to 100 scale), Foxtail, Green (Foxtail, Green [12]; 31 g ai/ha): 0; Plant response rating (0 to 100 scale), Pigweed ([13]; 31 g ai/ha): 0; Plant response rating (0 to 100 scale), Ragweed ([14]; 31 g ai/ha): 0; Ragweed plant response rating ([14]; 125 g ai/ha): 0; Plant response rating (0 to 100 scale), Corn (corn (Zea mays); 31 g ai/ha): 0; Corn plant response rating (corn (Zea mays); 125 g ai/ha): 0; Plant response rating (0 to 100 scale), Wheat ([15]; 31 g ai/ha): 0; Wheat plant response rating ([15]; 125 g ai/ha): 0; Blackgrass plant response rating ([16]; 31 g ai/ha): 60; Blackgrass plant response rating ([16]; 125 g ai/ha): 0; Barnyardgrass plant response rating ([17]; 31 g ai/ha): 0; Barnyardgrass plant response rating ([17]; 125 g ai/ha): 0; Plant response rating (0 to 100 scale), Ryegrass, It. ([18]; 31 g ai/ha): 0; Ryegrass, It. plant response rating ([18]; 125 g ai/ha): 0

Reference: US10750743B2, “Pyridazinone herbicides” (E.I. DU PONT DE NEMOURS AND COMPANY, priority 2015, dated 2020)
